Assay results reported in patent US5643923A, “Quinuclidinyloxy-isoxazole compounds and their therapeutic uses” (Sankyo Company, Limited, priority 1990, dated 1997).
Counter-ions that a name gives are not always drawn. Like-named read-outs stand apart in the source and are kept apart here.

Assays:
[1] = target: T1, M2 receptors (Rattus norvegicus, UniProt P10980); experiment: biochemical; type: binding
T1 sequence (P10980 1-466): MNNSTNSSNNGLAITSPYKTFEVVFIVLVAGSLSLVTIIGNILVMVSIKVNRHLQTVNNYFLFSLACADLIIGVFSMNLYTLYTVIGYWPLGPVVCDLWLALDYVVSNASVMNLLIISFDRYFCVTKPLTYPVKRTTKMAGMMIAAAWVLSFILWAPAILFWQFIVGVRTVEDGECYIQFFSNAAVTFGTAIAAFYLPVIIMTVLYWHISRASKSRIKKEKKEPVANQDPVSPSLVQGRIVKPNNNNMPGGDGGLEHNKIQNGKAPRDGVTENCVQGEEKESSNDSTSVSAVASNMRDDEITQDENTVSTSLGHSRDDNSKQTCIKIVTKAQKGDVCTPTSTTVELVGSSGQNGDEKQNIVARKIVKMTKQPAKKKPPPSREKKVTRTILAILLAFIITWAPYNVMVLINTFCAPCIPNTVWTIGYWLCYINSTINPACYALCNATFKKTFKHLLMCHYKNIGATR

[2] = target: T2, M1 receptors (Rattus norvegicus, UniProt P08482); experiment: biochemical; type: binding
T2 sequence (P08482 1-460): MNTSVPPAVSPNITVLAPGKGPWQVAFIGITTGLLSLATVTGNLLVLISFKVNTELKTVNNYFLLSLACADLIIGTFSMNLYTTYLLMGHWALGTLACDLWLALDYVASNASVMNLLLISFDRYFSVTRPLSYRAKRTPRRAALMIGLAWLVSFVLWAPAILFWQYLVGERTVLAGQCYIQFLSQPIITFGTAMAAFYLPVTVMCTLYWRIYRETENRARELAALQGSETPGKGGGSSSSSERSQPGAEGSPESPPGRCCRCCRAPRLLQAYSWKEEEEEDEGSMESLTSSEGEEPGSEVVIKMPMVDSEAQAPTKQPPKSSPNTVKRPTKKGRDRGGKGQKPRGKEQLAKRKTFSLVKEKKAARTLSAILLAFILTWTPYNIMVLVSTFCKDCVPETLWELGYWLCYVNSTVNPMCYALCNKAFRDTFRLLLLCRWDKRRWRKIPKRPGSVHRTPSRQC

[3] = test system: mice; experiment: Acute toxicity; type: in vivo, mouse; conditions: 75 mg/kg, 5 days observation
Description: Each of the compounds of Examples 3 and 4 was suspended in a 0.5% CMC solution, and the suspension was administered to mice in an amount sufficient to provide a dose of active compound of 75 mg/kg.

[4] = test system: reserpine-induced ptosis in mice; experiment: Anti-reserpine effect: antagonistic effect against reserpine-induced ptosis; type: in vivo, mouse (ddY strain); conditions: for Maximum inhibition rate (%): reserpine 2 mg/kg s.c., 90 minutes
Description: It is considered that the sedation caused by the administration of reserpine or tetrabenazine to mice or rats produces an effect similar to the symptoms of clinical depression. Of the various pharmacological effects caused by these compounds, ptosis (drooping of the upper eyelid) and a reduction in body temperature have been widely used as indices of their activity, and it has been shown that any compound which inhibits either ptosis or lowering of the body temperature will also be active against the symptoms of clinical depression. Therefore, anti-reserpine or anti-tetrabenazine effects have been widely used for a long time as a method of screening for antidepressants. The test index used for the evaluation of the compounds of the present invention is the antagonistic effect of a test compound against reserpine-induced ptosis in mice.
The test animals employed were mature male mice of the ddY strain, 4 weeks old and each weighing 22 to 27 g. The animals were divided into groups, each including 3 mice. The compound under test was dissolved or suspended in an appropriate solvent [either physiological saline or a 0.5% CMC (carboxymethyl cellulose) solution] and administered orally to the mice of the test groups in the dose specified in the following Table 6. The mice in a control group were given only the solvent without any active compound, administered in a similar way. Immediately after administration,2 mg/kg of reserpine were administered subcutaneously to every mouse. After 90 minutes, it was determined how much the eyelids had closed (degree of ptosis) by bringing the mouse out of its cage and observing the shape of the eye.
From the scores obtained, the inhibition rate at each dose level was calculated from the following equation: [formula]

[5] = test system: blood viscosity increase resulting from cerebral ischemia; experiment: Inhibition of blood viscosity increase resulting from cerebral ischemia; type: in vivo, rat (Wistar strain); conditions: oral; one hour after carotid ligation; shear 37.5, 75, 150 and 375/sec
Description: The test animals used were adult male rats of the Wistar strain. Each rat was administered orally either a solution of 3-(3-quinuclidinyloxy)isoxazole hydrochloride (the compound prepared as described in Example 4) in suspension in a 0.5% CMC vehicle or the vehicle itself. Immediately after administration, 40 mg/kg of pentobarbital was administered intraperitoneally for anesthesia. The rat was fixed at the dorsal position, and 0.6 ml of a blood sample was taken from the common jugular vein on one side. The viscosity of each sample was measured using a viscometer (Biorheolyzer, a trade name for product of Tokyo Keiki) at shear values of 37.5/sec, 75/sec, 150/sec and 375/sec. 0.5 ml of blood was then taken from the other side and its viscosity was measured in the same way.
After the first two samples had been taken, the carotid arteries on both sides of each animal were ligated. One hour after ligation, in the case of the control animals (administered only the vehicle), the blood viscosity values had increased by between 5 and 20% at every shear rate (the slower the shear rate, the higher the viscosity).

[6] = target: T3, 5-HT3 receptors (Rattus norvegicus, UniProt P35563); experiment: biochemical; type: binding
T3 sequence (P35563 24-483): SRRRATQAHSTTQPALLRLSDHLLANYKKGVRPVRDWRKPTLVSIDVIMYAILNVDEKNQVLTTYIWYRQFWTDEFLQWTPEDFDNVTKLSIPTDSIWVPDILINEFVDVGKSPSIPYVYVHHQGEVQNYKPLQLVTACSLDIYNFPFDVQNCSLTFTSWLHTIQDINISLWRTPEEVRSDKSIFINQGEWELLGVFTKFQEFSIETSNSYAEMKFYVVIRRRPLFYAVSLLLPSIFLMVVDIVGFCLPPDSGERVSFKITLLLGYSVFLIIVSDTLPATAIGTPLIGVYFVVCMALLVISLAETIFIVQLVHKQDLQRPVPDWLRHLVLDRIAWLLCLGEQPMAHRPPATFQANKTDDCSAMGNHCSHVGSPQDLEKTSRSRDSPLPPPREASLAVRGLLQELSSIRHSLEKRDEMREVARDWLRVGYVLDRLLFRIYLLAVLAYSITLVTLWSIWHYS
Description: A membranous fraction prepared from the cerebral cortex of rats was incubated with the test compound and with ^3 H-GR65630 (to a final concentration of 1 nM, as a ligand to the 5-HT3 receptors) at 37° C. for 45 minutes. At the end of this time, the samples were filtered. The ^3 H radioactivity bound to the filter paper was determined by a scintillation counter as in Experiment 1.

[7] = test system: isolated guinea pig ileum (selective 5-HT3 agonist 2-methyl-5-HT); experiment: Effects upon the isolated guinea pig ileum: inhibition of contraction by 2-methyl-5-HT; conditions: for Inhibition (%): 10^-6 M, contractile force by 2-methyl-5-HT, 30 minutes after addition
Description: The ileum isolated from a guinea pig was hung in a Magnus cup filled with Tyrode's solution. The contractile force exerted by the ileum on the application of a selective 5-HT3 agonist, 2-methyl-5-HT, was determined using an isometric transducer. A test compound was then added to the bath and the contractile force was again measured 30 minutes after the addition. The inhibition rate on the contractile force was calculated.

[8] = 3H-pirenzepine 1 nM, rat cerebral cortex membrane, 30° C., 60 minutes, read-out: IC50 Pirenzp (a) (cerebral cortex)
[9] = ratio IC50 QNB (heart) / IC50 Pirenzp (cerebral cortex)
[10] = 3H-GR65630 1 nM, rat cerebral cortex membrane, 37° C., 45 minutes

CN1CCC(Oc2noc3ccc(Cl)cc23)CC1.Cl [Example A1, 5-Chloro-3-(1-methyl-4-piperidyloxy)-1,2-benzisoxazole hydrochloride]
IC50 ([1]; read-out: IC50 QNB (b) (heart)): 41000 nM | IC50 [2, 8]: 1900 nM | M1 selectivity (b)/(a) [2, 9]: 22

Cc1onc(OC2CN3CCC2CC3)c1Cl.Cl (stereo not shown) [Example A2, 4-Chloro-5-methyl-3-(3-quinuclidinyloxy)isoxazole hydrochloride]
adverse symptoms [3]: nor did the mice exhibit any adverse symptoms | deaths [3]: no deaths were observed | Assessment ([4]; 3 mg/kg po): - (not more than 40%) | Maximum inhibition rate (%) ([4]; 3 mg/kg po): 60% | Assessment ([4]; 30 mg/kg po): + (inhibition rates not less than 71%) | Maximum inhibition rate (%) ([4]; 30 mg/kg po): 100%

Cl.c1cc(OC2CN3CCC2CC3)no1 (stereo not shown) [Example A3, 3-(3-Quinuclidinyloxy)isoxazole hydrochloride]
inhibition of blood viscosity increase [5]: the increase was significantly inhibited at every shear rate | adverse symptoms [3]: nor did the mice exhibit any adverse symptoms | deaths [3]: no deaths were observed | Assessment ([4]; 1 mg/kg po): - (not more than 40%) | Maximum inhibition rate (%) ([4]; 1 mg/kg po): 21% | Assessment ([4]; 3 mg/kg po): ± (from 41% to 70%) | Maximum inhibition rate (%) ([4]; 3 mg/kg po): 57% | Assessment ([4]; 10 mg/kg po): + (inhibition rates not less than 71%) | Maximum inhibition rate (%) ([4]; 10 mg/kg po): 86% | Assessment ([4]; 30 mg/kg po): + (inhibition rates not less than 71%) | Maximum inhibition rate (%) ([4]; 30 mg/kg po): 100%

Cc1cc(OC2CN3CCC2CC3)no1.Cl (stereo not shown) [Example A4, 5-Methyl-3-(3-quinuclidinyloxy)isoxazole hydrochloride]
Assessment ([4]; 30 mg/kg po): ± (from 41% to 70%) | Maximum inhibition rate (%) ([4]; 30 mg/kg po): 45% | Assessment ([4]; 100 mg/kg po): + (inhibition rates not less than 71%) | Maximum inhibition rate (%) ([4]; 100 mg/kg po): 80%

Cl.Clc1c(OC2CN3CCC2CC3)noc1-c1ccccc1 (stereo not shown) [Example A5, 4-Chloro-3-(3-quinuclidinyloxy)-5-phenylisoxazole hydrochloride]
IC50 [6]: 220 nM | 5-HT3 antagonist activity (in words) [7]: as potent an antagonist as ondansetron | Inhibition (%) [7]: 82%

Clc1ccc2onc(OC3CN4CCC3CC4)c2c1 (stereo not shown) [Example A6, 5-Chloro-3-(3-quinuclidinyloxy)-1,2-benzisoxazole]
IC50 [6, 10]: 180 nM

Clc1ccc(-c2cc(OC3CN4CCC3CC4)no2)cc1 (stereo not shown) [Example A7, 5-(p-Chlorophenyl)-3-(3-quinuclidinyloxy)isoxazole hydrochloride]
IC50 [6]: 320 nM

Clc1c(OC2CCCNC2)noc1-c1ccccc1 (stereo not shown) [Example A8, 4-Chloro-5-phenyl-3-(3-piperidyloxy)isoxazole hydrochloride]
IC50 [6, 10]: 260 nM

c1csc(-c2cc(OC3CN4CCC3CC4)no2)c1 (stereo not shown) [Example A9, 3-(3-Quinuclidinyloxy)-5-(2-thienyl)isoxazole hydrochloride]
IC50 [6]: 150 nM

O=C1CCCN1CC#CCN1CCCC1 [Example B1, Oxotremorine]
IC50 [1]: 1200 nM | IC50 [2]: 1300 nM | M1 selectivity (b)/(a) [2]: 0.9

CCN1C(=O)CC2(CCN(C)CC2)C1=O [Example B2]
IC50 ([1]; read-out: IC50 QNB (b) (heart)): 21000 nM | IC50 [2, 8]: 3100 nM | M1 selectivity (b)/(a) [2, 9]: 6.8

CC1OC2(CS1)CN1CCC2CC1 (stereo not shown) [Example B3]
IC50 ([1]; 3H-quinuclidinyl benzylate 0.12 nM, rat heart membrane, 30° C., 120 minutes, read-out: IC50 QNB (b) (heart)): 14000 nM | IC50 [2, 8]: 3600 nM

Cc1nccn1CC1CCc2c(c3ccccc3n2C)C1=O (stereo not shown) [Example B5, Ondansetron, reference compound]
Inhibition (%) [7]: 79%
